Measured values published in paper PMC9304322, “Targeting retinoic acid receptor alpha-corepressor interaction activates chaperone-mediated autophagy and protects against retinal degeneration” (Nature Communications, 2022).
Several values for one entry are separate records, joined by “and”; a condition that tells them apart may be missing. Equal entries are not always repeated.

Key:
CaCo-2 cells = assay: Bidirectional permeability assay with CaCo-2 cells; format: in vitro ADME, human; conditions: in words
Protocol: (§1) In vitro solubility in the following conditions A) HBSS/HEPES 10 mM/BSA 0.1% pH 6 B) HBSS/HEPES 10 mM/BSA 0.1% pH 7.4 C) TRIS/BSA 0.1% PBS (pH 7.4 and at indicated doses were measured by Nephelometry using the NEPHELOstar Galaxy apparatus (BMG Lab Technologies). In vitro stability in human, mouse and rat liver microsomes and permeability using a bidirectional permeability assay with CaCo-2 cells (pH 6.5/7.4) assays were performed with standard methodology and analyzed by LC-MS/MS. at SIMM-SERVIER joint Biopharmacy Laboratory. ADME properties for CA39 and CA77 were predicted by QikProp (Schrödinger, LLC, Releases 2016-2020) software.

lamp2a mRNA = lamp2a mRNA in hippocampus of treated KFERQ-Dendra mice; format: in vivo, mouse; conditions: for Fig. 3e value relative to Vehicle: single replicate values, one sample t test; for mRNA levels of lamp2a (Fig. 4d), individual mice / mRNA levels of lamp2a (Fig. 4d), mean: hippocampus, i.p. 30 mg/kg bw daily for three days, vehicle mean = 1.000; for mRNA levels of lamp2a (Fig. 4d), individual mice: 30 mg/kg; for mRNA levels of lamp2a (Fig. 4d), mean: n = 4 mice
Protocol: (§2) C57BL/6 J mice wild-type (WT) and homozygous for the Pde6 mutation (rd10 mouse model of retinal degeneration) were obtained from The Jackson Laboratory and experiments were performed at the age indicated in each part of the study. C57BL/6 KFERQ-Dendra mice were generated by back-crossing FVB KFERQ-Dendra mice with wild-type C57BL/6 mice for 8 generations. Both male and female animals were used in this study in equally distribution groups. However, results from both sexes were pooled, because of absence of significant differences in any of the parameters analyzed after statistical analysis with a mixed model of two-way ANOVA sex and treatment as independent variables and the corresponding measure as dependent variable. All animals were housed in a barrier-controlled facility (19–23 °C 30–60% relative humidity; 12 h light/dark cycle) with ad libitum access to standard chow pellets (protein 19 gm%/carbohydrate 67 gm%/fat 4 gm%) and water. For animal administration of CA compounds, a formula containing 30% PEG 400 (Sigma, #8.0745), 65% of 5% glucose solution, 5% Tween 80 (Sigma, #P1754) was used to dissolve them. CA compounds were prepared freshly by adding 5% DMSO and sonicating for 1 h. Treatment of KFERQ-Dendra mice with the CA compounds was done at 4 months of age by i.p. daily injection of 30 mg/kg bw or vehicle for three consecutive days and tissues collected 6 h after the last injection. In the case of rd10 mice, animals were daily injected from P18 to P25 with CA77 (40 mg/kg bw). In the case of intravitreal administration, a single intravitreal injection was applied at P18 with CA77 (40 µM) in DMSO/PBS and the contralateral eye was injected with PBS and DMSO at same concentration. At P26, mice were sacrificed and eyes fixed overnight with 4% PFA (Sigma, #P6148) in PBS at 4 °C for immunofluorescence or retinas dissected and immediately frozen for biochemistry. Distribution of animals in the vehicle or treatment group was done randomly. ICR (CD-1) outbred 3 months old male mice from ENVIGO were used for the pharmacokinetic studies (see pharmacokinetic section for housing and handling details). All animal studies and procedures complied with ethical regulations, were performed in accordance with the European Union guidelines and the ARVO Statement for the Use of Animals in Ophthalmic and Vision Research and were approved by the Institutional Animal Care and Use Committee at the Albert Einstein College of Medicine, the CSIC Bioetica Comite and approved by the Comunidad de Madrid, PROEX232/17.
RNA was extracted from individual retinas or tissue sections (brain, liver). Total RNA from retinas was extracted using TRIzol Reagent (Invitrogen, # 15596-018), and reverse transcription was performed using the High-Capacity cDNA Reverse Transcription Kit (Applied Biosystems, # 4374966) according to the manufacturer’s instructions. Quantitative real-time PCR was performed in a Light Cycler 480 Instrument (Roche) with Taqman LightCycler 480 probes Master Mix (Roche, #4887301001) using Taqman assays (Life Technologies). For cells in culture, RNA was extracted using RNeasy Plus Mini Kit (Qiagen, #74034), and reverse transcription was performed using Superscript III (Invitrogen, #18080051). Quantitative RT-PCR analysis were performed using Power SYBR Green PCR Master Mix (Applied Biosystems, #4368708) on a StepOne Plus Real-Time PCR System (Applied Biosystems). Mm01184405_m1 probe (Thermofisher) was used for rhodopsin and the sequence of all the other probes used for qPCR is included in Supplementary Table 2.

[1] = In vitro stability in human liver microsomes; format: in vitro ADME; conditions: in words
Protocol: as §1

rd10 mice = assay: rd10 mice, daily i.p. injection, retina histology and biochemistry; format: in vivo, mouse; conditions: daily i.p. 40 mg/kg bw, P18 to P25
Protocol: as §2
12 μm cryosections and immunofluorescence in retinal sections[10] after orienting retinas with a dorsal mark, so comparisons were performed taking into account the precise retinal area. Primary antibodies used in this study were visual (rod) arrestin, cone arrestin, Opsin R/G, transducin, GFAP, N-CoR1. Sections were visualized by confocal microscopy (TCS SP5; Leica Microsystems).
For ONL thickness quantification, DAPI images were taken at 40X in a fluorescence microscope Multidimensional system Leica AF6000 LX coupled to DMI600B microscope and Hamamatsu CCD 9100-O2 camera. At least two sections per animal were analyzed, preferably central sections. Eight images per retina equally distributed along the retina were acquired. Three measures were taken per image and ratio ONL/INL quantified with ImageJ tools. Leica LAS-X (3.7.4.23463) was used for image acquisition and ImageJ (v.2.1.0) was used for image processing. For OS length measures, fixed positions common to all pictures were considered and OS length was measured using ImageJ straight line tool.
RNA was extracted from individual retinas or tissue sections (brain, liver). Total RNA from retinas was extracted using TRIzol Reagent (Invitrogen, # 15596-018), and reverse transcription was performed using the High-Capacity cDNA Reverse Transcription Kit (Applied Biosystems, # 4374966) according to the manufacturer’s instructions. […]

For `CC(=O)Nc1ccc(C2=Nc3ccc(Cl)cc3OC2)cc1` [CA77], the membrane permeability (CaCo-2 cells) was “highly membrane permeable”, the “Fig. 3e value relative to Vehicle” value (lamp2a mRNA) was 2.04 and 2.28 and 1.87 and 1.53 and 2.54 and 2.31 and the “mRNA levels of lamp2a (Fig. 4d), individual mice” value (lamp2a mRNA) was 1.395 and 1.349 and 1.27 and 1.907. The “mRNA levels of lamp2a (Fig. 4d), mean” value (lamp2a mRNA) was 1.480, the “metabolic stability with human liver microsomes” value [1] was “high to intermediate” and the “expression levels of NCOR1” value (rd10 mice; WT and rd10 mice) was “did not change the expression levels of NCOR1”. The “mRNA levels of photoreceptor-specific proteins (rhodopsin)” value (rd10 mice; rd10 mice) was “Higher mRNA levels of photoreceptor-specific proteins”, the “outer nuclear layer (ONL) thickness” value (rd10 mice; rd10 mice) was “significantly thicker outer nuclear layers” and the “retinal GFAP levels” value (rd10 mice; rd10 mice) was “strikingly lower levels of GFAP”. The “retinal L2A levels by immunoblot” value (rd10 mice; rd10 mice) was “significantly increasing retinal levels of the limiting CMA component” and the “length of the outer segments of photoreceptors” value (rd10 mice; rd10 mice, vs vehicle) was “increased length of the outer segments of photoreceptors”.

In the case of `Clc1ccc2c(c1)OCC(c1ccc(-c3ccccc3)cc1)=N2` [CA39], the “Fig. 3e value relative to Vehicle” value (lamp2a mRNA) is reported as 1.07 and 1.28 and 1.20 and 1.32 and 1.95 and 2.13, the “mRNA levels of lamp2a (Fig. 4d), individual mice” value (lamp2a mRNA) is reported as 1.581 and 1.814 and 1.628 and 1.163 and the “mRNA levels of lamp2a (Fig. 4d), mean” value (lamp2a mRNA) is reported as 1.547. For the same compound, the “metabolic stability with human liver microsomes” value [1] was “high to intermediate”.
